The values below come from ChEMBL document CHEMBL1140957, “GRIND-based 3D-QSAR to predict inhibitory activity for similar enzymes, OSC and SHC” (Eur J Med Chem, 2008).

As a reminder, the pIC50 is the negative decadic logarithm of the IC50, by convention in mol/L. Read a low pIC50 as a large IC50. The IC50 is the concentration that gives 50% inhibition. Low readings indicate higher potency, high ones lower potency.

A short description of assay [1]: Inhibition of squalene-hopene cyclase.
Assay [2] deals with T1, Lanosterol synthase (Homo sapiens, UniProt P48449).
T1 sequence (P48449 whole entry): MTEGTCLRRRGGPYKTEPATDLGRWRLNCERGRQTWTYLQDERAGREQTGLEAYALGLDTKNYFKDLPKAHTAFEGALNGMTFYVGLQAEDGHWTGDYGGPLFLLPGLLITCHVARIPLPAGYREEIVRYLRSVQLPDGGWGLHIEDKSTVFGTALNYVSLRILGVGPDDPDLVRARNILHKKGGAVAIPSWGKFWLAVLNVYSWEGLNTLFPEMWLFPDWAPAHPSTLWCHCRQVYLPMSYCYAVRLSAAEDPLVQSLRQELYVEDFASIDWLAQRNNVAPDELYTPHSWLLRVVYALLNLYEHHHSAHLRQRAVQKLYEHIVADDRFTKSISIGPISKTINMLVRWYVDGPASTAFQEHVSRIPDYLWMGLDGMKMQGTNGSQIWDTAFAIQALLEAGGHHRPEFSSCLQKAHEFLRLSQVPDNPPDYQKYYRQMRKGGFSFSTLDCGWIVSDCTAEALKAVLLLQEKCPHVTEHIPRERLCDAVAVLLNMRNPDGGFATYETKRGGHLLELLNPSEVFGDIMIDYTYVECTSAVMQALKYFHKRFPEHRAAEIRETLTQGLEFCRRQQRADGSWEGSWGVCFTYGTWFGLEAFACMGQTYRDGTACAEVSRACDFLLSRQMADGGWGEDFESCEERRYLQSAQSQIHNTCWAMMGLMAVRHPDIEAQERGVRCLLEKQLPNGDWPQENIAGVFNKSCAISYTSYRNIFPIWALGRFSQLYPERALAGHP
Put plainly: Inhibition of oxidosqualene cyclase.

Several values for one entry are separate records, joined by “and”; a condition that tells them apart may be missing. Equal values may be shown once.

`CN(CCCCCCOC1CCN(C(=O)c2ccc(F)cc2)CC1)C1CC1` displayed a pIC50 in assay [1] of 6.12.
The compound `CN(C[C@H]1C[C@@H]1COc1ccc(C(=O)c2ccc(Br)cc2)c(F)c1)C1CC1` showed a negative logarithm of the IC50 (pIC50) in assay [1] of 7.3.
On the same count and under the same terms, next, `CN(CCCCCCOc1ccc(C(=O)c2ccc(Br)cc2)c(F)c1)C1CC1`: 7.42.
In the case of `C=CCN(C[C@H]1C[C@@H]1COc1ccc(C(=O)c2ccc(Br)cc2)cc1)C1CC1`, the midpoint of inhibition in assay [2], the IC50, lay at 6.46 nM.
`C=CCN(C)CCCCCCOc1ccc2c(-c3ccc(Br)cc3)noc2c1` came in with a pIC50 in assay [1] of 7.12.
`C=CCN(C)CCCCCCOc1ccc(C(=O)c2ccc(Br)cc2)cc1`: the pIC50 in assay [1] worked out at 7.02.
In turn, `CN(CCCO)CCCCCCOc1ccc(C(=O)c2ccc(Br)cc2)cc1` showed an IC50 in assay [2] of 28.8 nM. The same compound showed a pIC50 in assay [1] of 6.55.
In turn, `C=CCN(C)CCCCCCOc1ccc2c(c1)c(C)nn2C` gave an IC50 in assay [2] of 19.5 nM. Also, the pIC50 in assay [1] was 6.54 and 6.48.
With `CN(C[C@H]1C[C@@H]1COc1ccc(C(=O)c2ccc(Br)cc2)cc1)C1CC1`, the pIC50 in assay [1] came out at 7.21.
In turn, `C=CCN(C)C/C=C/COc1ccc(C(=O)c2ccc(Br)cc2)cc1` came in with a pIC50 in assay [1] of 7.4.
In turn, `C=CCN(C)C/C=C/COc1ccc(-c2nsc3cc(Br)ccc23)cc1` had a pIC50 in assay [1] of 6.89.
Still for that read-out and setting: the result for `C=CCN(C)C/C=C/COc1ccc2c(-c3ccc(Br)cc3)csc2c1` reads 7.12; that for `C=CCN(C)C/C=C/COc1ccc2c(-c3ccc(Br)cc3)noc2c1`, 7.31; that for `C=CCN(C)CCCCCCOC1CCN(C(=O)c2ccc(F)cc2)CC1`, 5.92.
On the same count and under the same terms, the result for `C=CCN(C)CCCCCCOc1ccc2c(c1)CON=C2c1ccc(Br)cc1` reads 6.76.
